In PubChem BioAssay (NCI):
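Five concentrations, 48 hours, 96-well plates. GI50: concentration for 50% inhibition of growth. TGI: total growth inhibition.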

What was measured:
Assay in all cases: NCI anticancer screen, dose series, 48 h
[1] = tested on: SK-MEL-2 melanoma
[2] = tested on: MDA-MB-231 breast
[3] = tested on: NCI-H522 lung
[4] = tested on: MALME-3M melanoma
[5] = tested on: DU-145 prostate
[6] = tested on: SN12C renal
[7] = tested on: K-562 leukemia
[8] = tested on: SK-MEL-28 melanoma
[9] = tested on: IGROV1 ovarian
[10] = tested on: TK-10 renal

| SMILES | GI50 [1] [µM] | TGI [1] [µM] | GI50 [2] [µM] | TGI [2] [µM] | GI50 [3] [µM] | TGI [3] [µM] | GI50 [4] [µM] | TGI [4] [µM] | GI50 [5] [µM] | TGI [5] [µM] | GI50 [6] [µM] | TGI [6] [µM] | GI50 [7] [µM] | TGI [7] [µM] | GI50 [8] [µM] | TGI [8] [µM] | GI50 [9] [µM] | TGI [9] [µM] | GI50 [10] [µM] | TGI [10] [µM] |
| --- | --- | --- | --- | --- | --- | --- | --- | --- | --- | --- | --- | --- | --- | --- | --- | --- | --- | --- | --- | --- |
| Nc1nccc2c1ccn2-c1ccc(NC(=O)c2ccc(N3CCOCC3)c(C(F)(F)F)c2)cc1 | 1.11 | 5.49 | 0.346 | 1.47 | 1.12 | 6.71 | 1.58 | 6.71 | 2.66 | 20.5 | 4.86 | 20.4 | 0.687 | > 100 | 1.17 | 14.1 | 1.56 | 30.4 | 1.52 | 9.75 |
| CC1(C)OCCn2c1nc1c(N3CCOCC3)nc(-c3cnc(N)nc3)nc12 | 0.372 | 3.79 | 0.457 | > 89.2 | 0.415 | 40.8 | 0.0974 | 0.6 | 0.354 | > 100 | 0.301 | > 48.3 | 2.27 | > 100 | 0.231 | 4.08 | 0.0622 | 0.432 | 0.109 | 0.676 |
| Cc1cn2c(/C=C3\C(=O)Nc4ccc(O)cc43)c(-c3ccc(Cl)cc3)nc2s1 | 21.9 | 70.5 | 14.5 | 54.2 | 11.3 | 57.9 | 14.3 | 42 | 10.3 | 25.2 | 10.4 | 25.5 | 10.4 | 40.9 | 12.2 | 28.1 | 5.56 | 23.9 | 18.7 | 52.2 |
| COc1ccncc1C#Cc1cncc(C(=O)Nc2ccc(CN3CCN(C)CC3)c(C(F)(F)F)c2)c1 | 13.3 | 48.3 | 7.71 | 85.4 | 11.4 | 46 | 4.3 | 23.3 | 25.7 | > 100 | 16.8 | > 100 | 0.0229 | > 100 | 13.3 | > 100 | 8.57 | 84.2 | 47.1 | > 100 |
| Cc1ccc(Cl)cc1Nc1nc(C(F)(F)F)ccc1C(=O)N1CCN(c2cccc(Cl)c2)CC1 | > 100 | > 100 | 30.5 | > 100 | 89.7 | > 100 | > 100 | > 100 | > 100 | > 100 | > 100 | > 100 | > 100 | > 100 | > 100 | > 100 | 39.2 | > 100 | > 100 | > 100 |
